Measured values: PubChem BioAssay (NCI)
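Method: 48-hour compound exposure of cells in 96-well plates, five concentrations, linear interpolation of endpoints. Here, GI50 denotes the concentration required for 50% inhibition of growth. The concentration for full growth arrest is given as TGI.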 *1 amine or outer side, *2 acyl side, *3 side chain or, on linkers, in order; H or OH if unused. Where a SMILES comes first, the peptide text is derived from it. [ ]: non-standard residue; d: D form. ξ: configuration not given here. X21 = CC[C@@H](C)C(N[*:1])C(=O)[*:2]; ξR = N=C(N)NCCCC(N)C(=O)O; ξI = CCC(C)C(N)C(=O)O; ξL = CC(C)CC(N)C(=O)O; ξK = NCCCCC(N)C(=O)O; ξV = CC(C)C(N)C(=O)O; ξA = CC(N)C(=O)O

Tests used:
Assay in all cases: DTP human tumour cell line panel, 48 h
MOLT-4 leukemia = system: MOLT-4 leukemia
BT-549 breast = system: BT-549 breast
DU-145 prostate = system: DU-145 prostate
RPMI-8226 leukemia = system: RPMI-8226 leukemia
NCI-H522 lung = system: NCI-H522 lung
IGROV1 ovarian = system: IGROV1 ovarian
HCC-2998 colon = system: HCC-2998 colon
SK-OV-3 ovarian = system: SK-OV-3 ovarian
SF-539 CNS = system: SF-539 CNS
SF-295 CNS = system: SF-295 CNS

COc1ccc(-c2csc(NC(=O)c3cc(O)c(O)c(O)c3)n2)cc1
GI50 (MOLT-4 leukemia): 2.3 µM
TGI (MOLT-4 leukemia): > 33.3 µM
GI50 (BT-549 breast): 10.9 µM
TGI (BT-549 breast): > 33.3 µM
GI50 (DU-145 prostate): 9.59 µM
TGI (DU-145 prostate): > 33.3 µM
GI50 (RPMI-8226 leukemia): 5.59 µM
TGI (RPMI-8226 leukemia): > 33.3 µM
GI50 (NCI-H522 lung): 1.32 µM
TGI (NCI-H522 lung): 6.89 µM
GI50 (IGROV1 ovarian): 6.69 µM
TGI (IGROV1 ovarian): 32.6 µM
GI50 (HCC-2998 colon): 17.2 µM
TGI (HCC-2998 colon): > 33.3 µM
GI50 (SK-OV-3 ovarian): 17.2 µM
TGI (SK-OV-3 ovarian): > 33.3 µM
GI50 (SF-539 CNS): 7.64 µM
TGI (SF-539 CNS): > 33.3 µM
GI50 (SF-295 CNS): 16.1 µM
TGI (SF-295 CNS): > 33.3 µM

CCOC(=O)Nc1nc2c(C)cccc2s1
GI50 (MOLT-4 leukemia): 38.1 µM
TGI (MOLT-4 leukemia): > 100 µM
GI50 (BT-549 breast): 35.8 µM
TGI (BT-549 breast): > 100 µM
GI50 (DU-145 prostate): 51.1 µM
TGI (DU-145 prostate): > 100 µM
GI50 (RPMI-8226 leukemia): 31.4 µM
TGI (RPMI-8226 leukemia): > 100 µM
GI50 (NCI-H522 lung): 47.8 µM
TGI (NCI-H522 lung): > 100 µM
GI50 (IGROV1 ovarian): 46 µM
TGI (IGROV1 ovarian): > 100 µM
GI50 (HCC-2998 colon): 64.7 µM
TGI (HCC-2998 colon): > 100 µM
GI50 (SK-OV-3 ovarian): > 100 µM
TGI (SK-OV-3 ovarian): > 100 µM
GI50 (SF-539 CNS): 77.7 µM
TGI (SF-539 CNS): > 100 µM
GI50 (SF-295 CNS): 27.2 µM
TGI (SF-295 CNS): > 100 µM

CCC(C)C1NC(=O)C(CC(C)C)NC(=O)C(C)NC(=O)C(C(C)C)NC(=O)C(CCCCN)NC(=O)C(CC(C)C)NC(=O)C(C(C)C)NC(=O)[C@H](C)NC(=O)C(C(C)CC)NC(=O)C(CCCN=C(N)N)NC(=O)C(CCCCN)NC(=O)C(CCCN=C(N)N)NC(=O)C(CCCCN)NC(=O)C([C@H](C)CC)NC(=O)C(CCCCN)NC1=O (stereo not given in full) (cyclo(A[ξV][ξL][ξK][ξV][ξA][ξL][ξI][ξK][X21][ξK][ξR][ξK][ξR][ξI]))
GI50 (MOLT-4 leukemia): 0.752 µM
TGI (MOLT-4 leukemia): 2.82 µM
GI50 (BT-549 breast): 1.56 µM
TGI (BT-549 breast): 3.42 µM
GI50 (DU-145 prostate): 1.81 µM
TGI (DU-145 prostate): 4.75 µM
GI50 (RPMI-8226 leukemia): 0.305 µM
TGI (RPMI-8226 leukemia): 1.13 µM
GI50 (NCI-H522 lung): 1.45 µM
TGI (NCI-H522 lung): 3.88 µM
GI50 (IGROV1 ovarian): 1.62 µM
TGI (IGROV1 ovarian): 4.55 µM
GI50 (HCC-2998 colon): 1.83 µM
TGI (HCC-2998 colon): 4.22 µM
GI50 (SK-OV-3 ovarian): 1.99 µM
TGI (SK-OV-3 ovarian): 5.94 µM
GI50 (SF-539 CNS): 1.84 µM
TGI (SF-539 CNS): 3.61 µM
GI50 (SF-295 CNS): 1.04 µM
TGI (SF-295 CNS): 2.52 µM

COc1ccc(/C=C/NC=O)cc1
TGI (MOLT-4 leukemia): > 100 µM
TGI (BT-549 breast): > 100 µM
TGI (DU-145 prostate): > 100 µM
TGI (RPMI-8226 leukemia): > 100 µM
TGI (NCI-H522 lung): > 100 µM
TGI (IGROV1 ovarian): > 100 µM
TGI (HCC-2998 colon): > 100 µM
TGI (SK-OV-3 ovarian): > 100 µM
TGI (SF-539 CNS): > 100 µM
TGI (SF-295 CNS): > 100 µM

O=C(Nc1ccccc1)Nc1cccc(Oc2nnc(Cl)c3ccccc23)c1
GI50 (MOLT-4 leukemia): 2.6 µM
TGI (MOLT-4 leukemia): 11.4 µM
GI50 (BT-549 breast): 3.06 µM
TGI (BT-549 breast): 10.8 µM
GI50 (DU-145 prostate): 3.01 µM
TGI (DU-145 prostate): 10.5 µM
GI50 (RPMI-8226 leukemia): 4.45 µM
TGI (RPMI-8226 leukemia): 24.3 µM
GI50 (NCI-H522 lung): 2.8 µM
TGI (NCI-H522 lung): 9.68 µM
GI50 (IGROV1 ovarian): 3.32 µM
TGI (IGROV1 ovarian): 7.92 µM
GI50 (HCC-2998 colon): 4.2 µM
TGI (HCC-2998 colon): 12.2 µM
GI50 (SK-OV-3 ovarian): 1.46 µM
TGI (SK-OV-3 ovarian): 5.51 µM
GI50 (SF-539 CNS): 2.81 µM
TGI (SF-539 CNS): 6.4 µM
GI50 (SF-295 CNS): 2.07 µM
TGI (SF-295 CNS): 5.63 µM

Fc1ccc2[nH]cc(SSc3c[nH]c4ccc(F)cc34)c2c1
GI50 (MOLT-4 leukemia): 2.71 µM
TGI (MOLT-4 leukemia): 33.4 µM
GI50 (BT-549 breast): 4.94 µM
TGI (BT-549 breast): 24.4 µM
GI50 (DU-145 prostate): 11.6 µM
TGI (DU-145 prostate): 31.1 µM
GI50 (RPMI-8226 leukemia): 1.5 µM
TGI (RPMI-8226 leukemia): 6.46 µM
GI50 (NCI-H522 lung): 2.48 µM
TGI (NCI-H522 lung): 7.67 µM
GI50 (IGROV1 ovarian): 5.35 µM
TGI (IGROV1 ovarian): 20.8 µM
GI50 (HCC-2998 colon): 6.34 µM
TGI (HCC-2998 colon): 23.3 µM
GI50 (SK-OV-3 ovarian): 6.13 µM
TGI (SK-OV-3 ovarian): 22.8 µM
GI50 (SF-539 CNS): 3.77 µM
TGI (SF-539 CNS): 14.7 µM
GI50 (SF-295 CNS): 3.04 µM
TGI (SF-295 CNS): 11.2 µM
